Literature values, collected in US4039736A (Bristol-Myers Company, priority 1976, dated 1977).

Test system: animal tumor systems
Conditions: reported in literature; cited from earlier work

CC(=O)[C@]1(O)Cc2c(O)c3c(c(O)c2[C@@H](O[C@H]2C[C@H](N)[C@H](O)[C@H](C)O2)C1)C(=O)c1c(O)cccc1C3=O [carminomycin]
activity against animal tumor systems: active against several animal tumor systems
